Data as given in patent US11230549B2, “Quinolino-pyrrolidin-2-one derivative and application thereof” (MEDSHINE DISCOVERY INC., priority 2018, dated 2022).

Experiments:
Human-derived ATM kinase = biological target: T1, Human-derived ATM kinase (Homo sapiens, UniProt Q13315); assay: ATM enzyme activity test (HTRF, phosphorylation of GST-cMyc-p53); assay type: biochemical
T1 construct: Eurofins (contract laboratory that ran the test)
Procedure: (§1) The compounds of the present disclosure used for experiments are all prepared in-house, and their chemical names and structural formulas are shown in the preparation examples of each compound. The experimental tests were carried out by a UK company Eurofins, and the experimental results were provided by the company. The following experimental processes were also provided by the company.
(§2) Human-derived ATM kinase was incubated in a buffer solution containing 30 nM of GST-cMyc-p53 and Mg/ATP. The concentration of Mg/ATP was determined according to different needs. The reaction was initiated by adding a Mg/ATP complex. After incubating for about 30 minutes at room temperature, a stop solution containing EDTA was added to stop the reaction. Finally, for phosphorylated p53, a detection buffer containing a d2-labeled anti-GST monoclonal antibody and an europium-labeled phosphorylated Ser15 antibody was added. Then time-resolved fluorescence mode was used to read a detection disk, and a homogeneous time-resolved fluorescence (HTRF) signal was obtained by calculating formula HTRF=10000×(Em665 nm/Em620 nm).

[1] = biological target: T2, Human-derived DNA-PK kinase (Homo sapiens, UniProt P78527); assay: DNA-PK enzyme activity test (HTRF, phosphorylation of GST-cMyc-p53); assay type: biochemical
T2 construct: Eurofins (contract laboratory that ran the test)
Procedure: as §1
as §2, with “Human-derived DNA-PK” for “Human-derived ATM”, “containing 50” for “containing 30”

[2] = test system: human lung cancer H446 cell subcutaneous xenograft tumor; assay: In vivo efficacy of ATM inhibitors and etoposide in H446 subcutaneous xenograft model; set-up: species or system female BALB/c nude mouse; conditions: etoposide 15 mg/kg IP, ATM inhibitor 5 mg/kg PO; for Tumor volume (mm^3) / Tumor volume (mm^3) (Day 26): Mean ± SEM; for T/C (%) tumor proliferation rate / TGI (%) tumor growth inhibition rate: Day 26; for Tumor volume (mm^3) (Day 26): Day 26 after administration
Procedure: Evaluation of the in vivo efficacy of the test drug ATM inhibitor and etoposide in a BALB/c nude mouse model with human lung cancer H446 cell subcutaneous xenograft tumor via intraperitoneal or oral administration.
5% CO2 culture. Conventional digestion treatment with pancreatin-EDTA for passage was carried out twice a week. When the cell saturation was 80% to 90%, the cells were collected, counted and inoculated.
0.2 mL 5×10^6 of H446 cells (1:1 plus matrigel) were subcutaneously inoculated on the right back of each nude mouse. The grouping and administration were started when the average tumor volume reached 125 mm^3 (Table).
The experimental index was to investigate whether the tumor growth was inhibited, delayed or cured. Tumor diameter was measured twice a week with a vernier caliper. The calculation formula of tumor volume: V=0.5a×b^2, wherein a and b represented the long and short diameters of the tumor, respectively.
Tumor proliferation rate T/C (%): wherein T is the average tumor volume obtained from the last measurement (PG-D26) of the treatment group, and C is the average tumor volume obtained from the last measurement (PG-D26) of the control group.
Mean value and standard error (SEM) of the tumor volume of each group at each time point were included (specific data is shown in tables). […] The comparison between two groups was analyzed by T-test, and the comparison between three or more groups was analyzed by one-way ANOVA. If there was heterogeneity of variance, the Games-Howell test was applied. If there was homogeneity of variance, the Dunnet (2-sided) test was used for analysis.

T1 sequence (Q13315 whole entry): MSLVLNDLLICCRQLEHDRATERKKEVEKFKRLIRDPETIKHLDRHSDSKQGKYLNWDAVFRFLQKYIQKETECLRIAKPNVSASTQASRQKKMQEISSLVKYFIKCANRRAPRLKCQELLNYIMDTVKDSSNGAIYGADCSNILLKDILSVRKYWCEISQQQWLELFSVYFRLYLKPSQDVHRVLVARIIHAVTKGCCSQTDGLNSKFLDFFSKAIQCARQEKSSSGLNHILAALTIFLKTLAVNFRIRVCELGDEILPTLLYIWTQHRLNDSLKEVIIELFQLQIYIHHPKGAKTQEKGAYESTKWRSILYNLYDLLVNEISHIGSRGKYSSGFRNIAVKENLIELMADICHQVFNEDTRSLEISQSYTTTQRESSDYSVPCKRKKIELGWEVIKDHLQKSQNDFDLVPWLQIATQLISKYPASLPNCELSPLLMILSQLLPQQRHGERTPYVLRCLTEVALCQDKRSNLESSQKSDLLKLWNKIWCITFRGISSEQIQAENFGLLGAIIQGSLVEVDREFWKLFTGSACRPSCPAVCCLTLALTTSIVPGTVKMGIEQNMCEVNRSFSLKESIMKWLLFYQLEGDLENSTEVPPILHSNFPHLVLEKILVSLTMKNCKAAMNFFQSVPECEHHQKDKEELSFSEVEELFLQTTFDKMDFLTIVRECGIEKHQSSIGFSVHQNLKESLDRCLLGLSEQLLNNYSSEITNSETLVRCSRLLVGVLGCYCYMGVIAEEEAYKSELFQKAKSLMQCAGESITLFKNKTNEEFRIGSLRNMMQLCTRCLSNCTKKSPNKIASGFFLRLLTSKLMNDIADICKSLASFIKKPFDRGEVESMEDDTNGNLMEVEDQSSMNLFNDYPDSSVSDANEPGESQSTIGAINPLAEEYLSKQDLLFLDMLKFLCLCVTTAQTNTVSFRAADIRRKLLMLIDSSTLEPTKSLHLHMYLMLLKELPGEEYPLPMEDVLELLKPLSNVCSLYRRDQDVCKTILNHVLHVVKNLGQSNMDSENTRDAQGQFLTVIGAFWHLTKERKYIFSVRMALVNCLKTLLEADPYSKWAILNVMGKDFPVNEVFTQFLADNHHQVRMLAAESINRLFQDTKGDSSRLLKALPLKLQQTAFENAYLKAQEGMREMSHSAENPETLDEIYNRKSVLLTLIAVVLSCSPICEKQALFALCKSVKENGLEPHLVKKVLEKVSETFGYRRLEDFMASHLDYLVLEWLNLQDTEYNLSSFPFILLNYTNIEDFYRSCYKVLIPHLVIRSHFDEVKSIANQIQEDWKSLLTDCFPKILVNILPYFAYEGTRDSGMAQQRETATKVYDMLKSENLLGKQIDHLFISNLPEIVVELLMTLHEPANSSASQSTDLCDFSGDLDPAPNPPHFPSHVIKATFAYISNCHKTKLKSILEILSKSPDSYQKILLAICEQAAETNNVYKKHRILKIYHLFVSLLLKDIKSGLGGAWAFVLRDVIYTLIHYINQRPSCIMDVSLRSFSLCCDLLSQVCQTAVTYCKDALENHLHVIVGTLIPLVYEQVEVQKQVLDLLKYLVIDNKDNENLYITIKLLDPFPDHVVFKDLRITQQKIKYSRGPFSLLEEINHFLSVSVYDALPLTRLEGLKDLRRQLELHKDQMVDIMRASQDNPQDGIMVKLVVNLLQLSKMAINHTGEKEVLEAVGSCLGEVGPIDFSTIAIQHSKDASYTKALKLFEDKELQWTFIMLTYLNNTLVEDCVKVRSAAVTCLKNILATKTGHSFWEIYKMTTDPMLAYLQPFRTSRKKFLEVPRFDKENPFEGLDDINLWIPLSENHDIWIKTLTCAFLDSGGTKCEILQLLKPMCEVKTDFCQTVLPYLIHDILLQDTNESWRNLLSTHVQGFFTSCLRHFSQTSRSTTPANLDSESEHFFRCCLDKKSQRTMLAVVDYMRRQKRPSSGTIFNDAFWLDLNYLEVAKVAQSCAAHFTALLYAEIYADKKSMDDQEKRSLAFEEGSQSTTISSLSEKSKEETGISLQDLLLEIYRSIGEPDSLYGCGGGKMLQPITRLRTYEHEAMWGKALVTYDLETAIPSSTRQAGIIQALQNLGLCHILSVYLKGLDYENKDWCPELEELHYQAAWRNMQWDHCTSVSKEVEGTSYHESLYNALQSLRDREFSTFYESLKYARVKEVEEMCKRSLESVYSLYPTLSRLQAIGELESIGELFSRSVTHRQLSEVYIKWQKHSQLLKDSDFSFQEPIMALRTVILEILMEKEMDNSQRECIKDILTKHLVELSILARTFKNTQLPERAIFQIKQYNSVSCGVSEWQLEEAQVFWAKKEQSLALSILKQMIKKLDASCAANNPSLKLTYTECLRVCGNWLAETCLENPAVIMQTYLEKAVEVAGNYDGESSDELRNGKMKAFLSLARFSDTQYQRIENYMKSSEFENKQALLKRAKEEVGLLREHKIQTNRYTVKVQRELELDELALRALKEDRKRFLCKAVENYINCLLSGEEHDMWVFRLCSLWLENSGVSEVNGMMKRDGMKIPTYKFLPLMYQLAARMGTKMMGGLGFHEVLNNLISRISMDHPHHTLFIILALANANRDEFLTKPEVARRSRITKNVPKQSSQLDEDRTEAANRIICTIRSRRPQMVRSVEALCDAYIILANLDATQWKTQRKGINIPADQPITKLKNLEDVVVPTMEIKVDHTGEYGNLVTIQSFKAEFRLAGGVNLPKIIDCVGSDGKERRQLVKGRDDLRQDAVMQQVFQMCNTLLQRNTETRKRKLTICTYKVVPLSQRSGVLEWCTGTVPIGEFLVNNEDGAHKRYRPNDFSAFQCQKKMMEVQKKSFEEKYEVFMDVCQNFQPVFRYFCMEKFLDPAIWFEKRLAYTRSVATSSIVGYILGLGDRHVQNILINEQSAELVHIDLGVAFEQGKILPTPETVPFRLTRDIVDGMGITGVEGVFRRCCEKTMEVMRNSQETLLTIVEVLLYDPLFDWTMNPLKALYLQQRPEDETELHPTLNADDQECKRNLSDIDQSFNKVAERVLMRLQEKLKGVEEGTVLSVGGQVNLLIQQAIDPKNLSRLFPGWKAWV

Row | IC50 (Human-derived ATM kinase) | IC50 [1] | Structure (SMILES) | further results
1 | 2 nM | 800 nM | CN1C(=O)C2(CCOCC2)c2c1cnc1ccc(-c3ccc(OCCCN(C4CC4)C4CC4)nc3)cc21 [Example 6] | –
2 | 5 nM | > 1000 nM | CN(C)CCCOc1ccc(-c2cc3c4c(cnc3cc2F)N(C2CC2)C(=O)C42CCOCC2)cn1 [Example 34] | –
3 | 3 nM | > 1000 nM | O=C1N(C2CC2)c2cnc3cc(F)c(-c4ccc(OCCCN5CCCCC5)nc4)cc3c2C12CCOCC2 [Example 35] | –
4 | 1 nM | 76 nM | CN(C)CCCOc1ccc(-c2ccc3ncc4c(c3c2)C2(CCC(O)CC2)C(=O)N4C)cn1 (centres unmarked) [Example 26] | –
5 | 2 nM | 80 nM | CN1C(=O)C2(CCOCC2)c2c1cnc1ccc(-c3ccc(OCCCN4CCCCC4)nc3)cc21 [Example 24] | –
6 | 12 nM | > 1000 nM | CN(C)CCCOc1ccc(-c2cc3c4c(cnc3cc2Cl)N(C)C(=O)C42CCOCC2)cn1 [Example 36] | –
7 | 2 nM | 129 nM | COC(=O)N1CCC2(CC1)C(=O)N(C)c1cnc3ccc(-c4ccc(OCCCN5CCCCC5)nc4)cc3c12 [Example 20] | –
8 | 1 nM | 153 nM | CN(C)CCCOc1ccc(-c2ccc3ncc4c(c3c2)C2(CCC(F)(F)CC2)C(=O)N4C)cn1 [Example 7] | –
9 | 3 nM | 352 nM | CC(=O)N1CCC2(CC1)C(=O)N(C)c1cnc3ccc(-c4ccc(OCCCN(C)C)nc4)cc3c12 [Example 17] | –
10 | 2 nM | 561 nM | CN1C(=O)C2(CCOCC2)c2c1cnc1cc(F)c(-c3ccc(OCCCN4CCCCC4)nc3)cc21 [Example 32] | Tumor volume (mm^3) ([2]; Day 0 after administration): 125 ± 7 mm^3; Tumor volume (mm^3) ([2]; Day 3 after administration): 138 ± 6 mm^3; Tumor volume (mm^3) ([2]; Day 7 after administration): 229 ± 10 mm^3; Tumor volume (mm^3) ([2]; Day 10 after administration): 359 ± 36 mm^3; Tumor volume (mm^3) ([2]; Day 14 after administration): 644 ± 83 mm^3; Tumor volume (mm^3) ([2]; Day 17 after administration): 974 ± 129 mm^3; Tumor volume (mm^3) ([2]; Day 21 after administration): 1240 ± 157 mm^3; T/C (%) tumor proliferation rate [2]: 73.86%; TGI (%) tumor growth inhibition rate [2]: 27.36%; Tumor volume (mm^3) (Day 26) [2]: 2054 ± 221 mm^3
11 | 2 nM | 334 nM | CN1C(=O)C2(CCC(C)(O)CC2)c2c1cnc1ccc(-c3ccc(OCCCN4CCCCC4)nc3)cc21 (centres unmarked) [Example 28] | –
12 | 2 nM | 26 nM | CN(C)CCCOc1ccc(-c2ccc3ncc4c(c3c2)C2(CCN(CC(F)F)CC2)C(=O)N4C)cn1 [Example 12] | –
13 | 1 nM | 99 nM | CN(C)CCCOc1ccc(-c2ccc3ncc4c(c3c2)C2(CCC(C)(O)CC2)C(=O)N4C)cn1 (centres unmarked) [Example 27] | –
14 | 63 nM | 88 nM | COCc1ccc(-c2ccc3ncc4c(c3c2)C2(CCOCC2)C(=O)N4C)cn1 [Example 31] | –
15 | 2 nM | 92 nM | CN1C(=O)C2(CCOCC2)c2c1cnc1ccc(-c3ccc(OCCCN4CCC(F)CC4)nc3)cc21 [Example 5] | –
16 | 2 nM | 269 nM | CN(C)CCCOc1ccc(-c2ccc3ncc4c(c3c2)C2(CCOCC2)C(=O)N4C2CC2)cn1 [Example 29] | –
17 | 2 nM | 475 nM | O=C1N(C2CC2)c2cnc3ccc(-c4ccc(OCCCN5CCCCC5)nc4)cc3c2C12CCOCC2 [Example 30] | –
18 | 1 nM | 48 nM | CN1C(=O)C2(CCOCC2)c2c1cnc1ccc(-c3ccc(OCCCN4CC[C@H](F)C4)nc3)cc21 [Example 3] | –
19 | 7 nM | 509 nM | CC(C)OC(=O)N1CCC2(CC1)C(=O)N(C)c1cnc3ccc(-c4ccc(OCCCN(C)C)nc4)cc3c12 [Example 21] | –
20 | 1 nM | 92 nM | COC1CCC2(CC1)C(=O)N(C)c1cnc3ccc(-c4ccc(OCCCN(C)C)nc4)cc3c12 (centres unmarked) [Example 25] | –
21 | 1 nM | 593 nM | CN(C)CCCOc1ccc(-c2cc3c4c(cnc3cc2F)N(C)C(=O)C42CCOCC2)cn1 [Example 33] | –
22 | 0.8 nM | 77 nM | COC(=O)N1CCC2(CC1)C(=O)N(C)c1cnc3ccc(-c4ccc(OCCCN(C)C)nc4)cc3c12 [Example 19] | –
23 | 288 nM | 73 nM | CN1C(=O)C2(CCOCC2)c2c1cnc1ccc(-c3cnn(C)c3)cc21 [Example 2] | –
24 | 2 nM | 343 nM | CN(C)CCCOc1ccc(-c2ccc3ncc4c(c3c2)C2(CCN(C(=O)C3CC3)CC2)C(=O)N4C)cn1 [Example 18] | –
25 | 0.9 nM | 78 nM | CN(C)CCCOc1ccc(-c2ccc3ncc4c(c3c2)C2(CCOCC2)C(=O)N4C)cn1 [Example 1] | –
26 | 1 nM | 62 nM | CN1C(=O)C2(CCOCC2)c2c1cnc1ccc(-c3ccc(OCCCN4CC[C@@H](F)C4)nc3)cc21 [Example 4] | –
27 | – | – | COc1cc([C@@H]2c3cc4c(cc3[C@@H](O[C@@H]3O[C@@H]5CO[C@@H](C)O[C@H]5[C@H](O)[C@H]3O)[C@H]3COC(=O)[C@H]23)OCO4)cc(OC)c1O [Etoposide, etoposide, reference compound] | Tumor volume (mm^3) ([2]; Day 0 after administration): 125 ± 8 mm^3; Tumor volume (mm^3) ([2]; Day 3 after administration): 132 ± 11 mm^3; Tumor volume (mm^3) ([2]; Day 7 after administration): 259 ± 37 mm^3; Tumor volume (mm^3) ([2]; Day 10 after administration): 364 ± 47 mm^3; Tumor volume (mm^3) ([2]; Day 14 after administration): 552 ± 66 mm^3; Tumor volume (mm^3) ([2]; Day 17 after administration): 851 ± 84 mm^3; Tumor volume (mm^3) ([2]; Day 21 after administration): 1021 ± 112 mm^3; T/C (%) tumor proliferation rate [2]: 59.93%; TGI (%) tumor growth inhibition rate [2]: 41.95%; Tumor volume (mm^3) (Day 26) [2]: 1667 ± 193 mm^3

Row | Structure (SMILES) | IC50 (Human-derived ATM kinase) | IC50 [1] | further results
28 | CN(C)CCCOc1ccc(-c2ccc3ncc4c(c3c2)C2(CCN(CC(F)(F)F)CC2)C(=O)N4C)cn1 [Example 13] | 4 nM | 27 nM | –
29 | CC(C)N1CCC2(CC1)C(=O)N(C)c1cnc3ccc(-c4ccc(OCCCN5CCCCC5)nc4)cc3c12 [Example 16] | 4 nM | 204 nM | –
30 | CN1C(=O)C2(CCN(CC(F)(F)F)CC2)c2c1cnc1ccc(-c3ccc(OCCCN4CCCCC4)nc3)cc21 [Example 14] | 3 nM | 46 nM | –
31 | CCN1CCC2(CC1)C(=O)N(C)c1cnc3ccc(-c4ccc(OCCCN5CCCCC5)nc4)cc3c12 [Example 11] | 2 nM | 243 nM | –
32 | CN(C)CCCOc1ccc(-c2ccc3ncc4c(c3c2)C2(CCN(C)CC2)C(=O)N4C)cn1 [Example 9] | 1 nM | 83 nM | –
33 | CN(C)CCCOc1ccc(-c2ccc3ncc4c(c3c2)C2(CCN(C3CC3)CC2)C(=O)N4C)cn1 [Example 22] | 1 nM | 14 nM | –
34 | CC(C)N1CCC2(CC1)C(=O)N(C)c1cnc3ccc(-c4ccc(OCCCN(C)C)nc4)cc3c12 [Example 15] | 2 nM | 41 nM | –
35 | CN(C)CCCOc1ccc(-c2ccc3ncc4c(c3c2)C2(CCNCC2)C(=O)N4C)cn1 [Example 8] | 3 nM | 99 nM | –
36 | CN1C(=O)C2(CCN(C3CC3)CC2)c2c1cnc1ccc(-c3ccc(OCCCN4CCCCC4)nc3)cc21 [Example 23] | 0.8 nM | 30 nM | –
37 | CCN1CCC2(CC1)C(=O)N(C)c1cnc3ccc(-c4ccc(OCCCN(C)C)nc4)cc3c12 [Example 10] | 2 nM | 80 nM | –
